Results taken from paper PMC7157554, “Anti-Trypanosomal Proteasome Inhibitors Cure Hemolymphatic and Meningoencephalic Murine Infection Models of African Trypanosomiasis” (Tropical Medicine and Infectious Disease, 2020).
Read-outs that look alike come from different tables or passages of the source.

Columns and labels:
[1] = LogD (measured octanol water co-efficient); format: physicochemical
[2] = PAMPA (parallel artificial membrane permeability assay); format: in vitro ADME; settings: FA: fraction absorbed
Protocol: (§1) Test compounds’ solubility was determined in a high-throughput thermodynamic solubility assay, as described previously. The PAMPA (parallel artificial membrane) assays were carried out, using a standard protocol. Plasma protein binding was determined by using mouse blood, whilst brain tissue binding was determined by using rat brain tissue homogenate. Intrinsic metabolic clearances were determined in mouse liver microsomes, using the compound depletion approach and LC–MS/MS quantification.

[3] = Intrinsic metabolic clearance in mouse liver microsomes; format: in vitro ADME
Protocol: as §1

[4] = Intravenous pharmacokinetics in mouse; format: in vivo; settings: for T1/2 / Vd: i.v. 5 mg/kg; for T1/2: elimination half-life; for Vd: read-out: Vss
Protocol: Determination of intravenous (i.v.) and per oral (p.o.) pharmacokinetics (PK) were carried out by using male BALB/c mice. […] To avoid any granular material, the solution was filtered, using a 0.45 μm syringe filter. The filtered solutions were dosed intravenously to mice via the lateral tail vein, at 5 mg/kg, with a dosing volume of 2 mL/kg. For all the p.o. PK studies, compounds were resuspended in 0.5% v/v methyl cellulose in 0.5 % v/v tween 80 solution. For 20 mg/kg dosing, 200 µL of compounds was administered orally to mice. […] Blood samples were collected into heparin microtainers and centrifuged, and then plasma was separated and frozen until analysis. Plasma samples (20 μL) were extracted with acetonitrile:methanol (3:1) containing internal standard. […] The supernatant was transferred to a 96-well analysis plate and analyzed, using optimized LC/MS/MS conditions. For every experiment, 3 mice were used per compound, per dose. The plasma concentration-time profile was obtained by plotting the mean value from the three animals at each time point. Various PK parameters, such as Cmax (maximum concentration), area under curve (AUC) and oral bioavailability (F) for compounds, were calculated by non-compartmental regression analysis, using an in-house fitting program developed at GNF [8]. All the in-life studies were carried out under protocols approved by the Animal Care and Use Committee (IACUC), following animal ethics guidelines of GNF.

T. b. brucei STIB795 = assay: Hemolymphatic mouse model (stage 1 HAT efficacy model); format: in vivo; settings: for % Cured / Mean day of Relapse / Mice Cured/Total: four days; for Minimum efficacious dose: QD dosing for four days, stage 1 model
Protocol: The T. b. brucei STIB795 acute mouse model mimics the hemolymphatic stage of the sleeping sickness disease. We used six female NMRI mice per experimental group, divided into two cages. Heparinized blood from a donor mouse with approximately 5 × 10^6 per mL parasitemia was suspended in phosphate saline glucose (PSG), to obtain a parasite suspension of […]. Each mouse was injected with 0.25 mL of parasite suspension (10^4 bloodstream forms of T. b. brucei STIB795) intraperitoneally. All compounds were formulated in 0.5% methylcellulose and 0.5% Tween80. Three days post-infection, test compounds were administered orally on four consecutive days, in a volume of 100 µL/10 g. Three mice served as infected–untreated controls. […] Until 31 days post-infection, parasitemia was monitored microscopically by tail-blood examination twice a week. Mice were considered cured when there was no parasitemia detected in the tail blood. All the results from the individual experiments were reported as number of mice cured over total number of mice treated. A Kaplan–Meier plot was used for representing the number of mice cured at different treatment doses.

[5] = test system: MDR1-MDCK (Multi Drug Resistant 1 overexpressing Madin–Darby canine kidney cells); assay: in vitro; settings: dog
Protocol: In order to evaluate potential of brain permeability, all three compounds were tested in an MDR1-MDCK permeability assay. […] Those that have a high efflux ratio are generally substrates for Pgp transporters, thereby having a higher propensity to be excluded from the brain. […] To assess directly the TP compounds’ ability to penetrate brain, mice were dosed with compound, and plasma and brains were collected after 5 and 60 min following intravenous dosing.

[6] = Brain-to-plasma drug concentration ratio in mice; format: in vivo; settings: mouse, read-out: B/P Ratio; for Kp at 5 min: 5 min after 1 mg/kg i.v.; for Kp at 60 min: 60 min after 1 mg/kg i.v.
Protocol: For measurement of the brain-to-plasma drug concentration ratio, mice were dosed intravenously with 1 mg/kg compounds. Mice were euthanized at 5 and 60 min post-dosing, and blood and brains were collected. The compound concentrations in plasma and brains were measured, following the protocol described above.

[7] = test system: T. b. brucei (GVR35-VSL2); assay: Meningoencephalic mouse model (stage 2 HAT efficacy model, GVR35) with bioluminescence imaging; format: in vivo; settings: for Dose that completely cured stage 2 infection: HAT mouse model
Protocol: The GVR35 mouse CNS model mimics the second (meningoencephalic) stage of African trypanosomiasis. Female CD1 mice (~8 weeks old, from Charles River) were injected intraperitoneally (i.p.) with 3 × 10^4 T. b. brucei (GVR35-VSL2) bloodstream-form parasites. As controls, a group of three untreated mice and another group of three mice treated with diminazene aceturate (DA) were included. […] Mice treated with DA usually relapse after 42 days post-infection. […]
Blood parasitemia was quantified weekly from day 21/22, by microscopy of blood from the tail vein. Mice were imaged for bioluminescence using an in vivo imaging system (IVIS) prior to treatment on day 21/22, and weekly after treatment, as described previously. Briefly, mice, in groups of three, were injected i.p. with 150 mg of D-luciferin (Promega) per kilogram body weight in PBS and imaged after 10 min, using an IVIS Spectrum (PerkinElmer, Waltham, Massachusetts MA, USA). Living Image Software (PerkinElmer) was used for acquisition and analysis of bioluminescence imaging data. Bioluminescence in the same rectangular region of interest (ROI) on whole-body mouse images was quantified and is shown in total flux (photons per second). Images were cropped to the ROIs and composites of images from representative mice are shown. Uncured mice were euthanized within 1 or 2 days of parasite detection in the blood. Cured mice were euthanized between day 92 and 101 post-infection. All the results from the individual experiments were reported as number of mice cured over total number of mice treated. A Kaplan–Meier plot was used for representing the number of mice cured at different treatment doses.

T. b. gambiense = assay: Growth inhibition of T. b. gambiense strains; format: cell-based; settings: Trypanosoma brucei, mean ± SD, read-out: T. b. gambiense EC50
[8] = male, BALB/c, plasma, iv, 5 mg/kg

Structure (SMILES): Cc1nc(C)c(C(=O)Nc2ccc(F)c(-c3nc4ncc(C(C)(C)C)cn4n3)c2)o1 [NITD689]
- logD [1]: 3.05
- PAMPA Permeability (% FA) [2]: 99.1 % FA
- microsomal CLint ([3]; liver microsomes, read-out: Mouse liver microsomal clearance): 7.41 µL/min/mg
- T1/2 [4]: 1.6 H
- clearance [4, 8]: 13.5 mL/min/kg
- half-life ([4]; male, BALB/c, plasma, iv, 5 mg/kg, i.v., read-out: Elimination half-life (converted)): 1.6 h
- Vd ([4]; male, BALB/c, plasma, iv): 1.5 L/kg
- % Cured (T. b. brucei STIB795; 1 mg/kg QD oral): 0%
- Mean day of Relapse (T. b. brucei STIB795; 1 mg/kg QD oral): 19.5 days post infection
- Mice Cured/Total (T. b. brucei STIB795; 1 mg/kg QD oral): 0/6
- % Cured (T. b. brucei STIB795; 1.5 mg/kg BID oral): 16.7%
- Mean day of Relapse (T. b. brucei STIB795; 1.5 mg/kg BID oral): 21 days post infection
- Mice Cured/Total (T. b. brucei STIB795; 1.5 mg/kg BID oral): 1/6
- % Cured (T. b. brucei STIB795; 3 mg/kg QD oral): 50%
- Mean day of Relapse (T. b. brucei STIB795; 3 mg/kg QD oral): 21 days post infection
- Mice Cured/Total (T. b. brucei STIB795; 3 mg/kg QD oral): 3/6
- % Cured (T. b. brucei STIB795; 10 mg/kg QD oral): 100%
- Mean day of Relapse (T. b. brucei STIB795; 10 mg/kg QD oral): >31 days post infection
- Mice Cured/Total (T. b. brucei STIB795; 10 mg/kg QD oral): 6/6
- Minimum efficacious dose (T. b. brucei STIB795): 10 mg/kg
- MDR1-MDCK A–B [5]: 32.6
- MDR1-MDCK B–A [5]: 29.2
- Kp at 5 min ([6]; brain and plasma, intravenous): 0.12
- Kp at 60 min ([6]; brain and plasma, intravenous): 0.12
- % Cured ([7]; 15 mg/kg BID oral, seven days): 0%
- Mean Day of Relapse ([7]; 15 mg/kg BID oral, seven days): 42 days post infection
- Mice Cured/Total ([7]; 15 mg/kg BID oral, seven days): 0/6
- Cure outcome ([7]; 15 mg/kg twice daily and 30 mg/kg once daily): failed to cure
- % Cured ([7]; 30 mg/kg BID oral, seven days): 100%
- Mean Day of Relapse ([7]; 30 mg/kg BID oral, seven days): >94 days post infection
- Mice Cured/Total ([7]; 30 mg/kg BID oral, seven days): 6/6
- % Cured ([7]; 30 mg/kg QD oral, seven days): 0%
- Mean Day of Relapse ([7]; 30 mg/kg QD oral, seven days): 50 days post infection
- Mice Cured/Total ([7]; 30 mg/kg QD oral, seven days): 0/6
- Cure outcome ([7]; 30 mg/kg twice daily and 60 mg/kg once daily): complete cure
- % Cured ([7]; 60 mg/kg QD oral, seven days): 100%
- Mean Day of Relapse ([7]; 60 mg/kg QD oral, seven days): >94 days post infection
- Mice Cured/Total ([7]; 60 mg/kg QD oral, seven days): 6/6
- Dose that completely cured stage 2 infection [7]: 60 mg/kg

Structure (SMILES): Cc1nc(C)c(C(=O)Nc2ccc(F)c(-c3nc4ncc(-c5ccccn5)cn4n3)c2)o1 [GNF6702]
- logD [1]: 2.32
- PAMPA Permeability (% FA) [2]: 92 % FA
- microsomal CLint ([3]; microsomes): 34.1 µL/min/mg
- EC50 (T. b. gambiense; GAMBIENSE / STIB930, strain STIB930): 3.7 ± 2 nM
- EC50 (T. b. gambiense; GAMBIENSE, strain K048): 3.5 ± 1.4 nM
- EC50 (T. b. gambiense; GAMBIENSE, strain R130): 2.3 ± 1.1 nM
- T1/2 [4]: 7.0 H
- Vd ([4]; male, BALB/c, in vivo, iv): 1.2 L/kg
- clearance [4, 8]: 2.26 mL/min/kg
- % Cured (T. b. brucei STIB795; 0.1 mg/kg QD oral): 0%
- Mean day of Relapse (T. b. brucei STIB795; 0.1 mg/kg QD oral): 6.83 days post infection
- % Cured (T. b. brucei STIB795; 0.3 mg/kg QD oral): 33.3%
- Mean day of Relapse (T. b. brucei STIB795; 0.3 mg/kg QD oral): 19 days post infection
- % Cured (T. b. brucei STIB795; 1 mg/kg QD oral): 100%
- Mean day of Relapse (T. b. brucei STIB795; 1 mg/kg QD oral): >31 days post infection
- % Cured (T. b. brucei STIB795; 3 mg/kg QD oral): 100%
- Mean day of Relapse (T. b. brucei STIB795; 3 mg/kg QD oral): >31 days post infection
- % Cured (T. b. brucei STIB795; 10 mg/kg QD oral): 100%
- Mean day of Relapse (T. b. brucei STIB795; 10 mg/kg QD oral): >31 days post infection
- Minimum efficacious dose (T. b. brucei STIB795): 1 mg/kg
- MDR1-MDCK A–B [5]: 8.3
- MDR1-MDCK B–A [5]: 22.1
- Kp at 5 min ([6]; in vivo): 0.13
- Kp at 60 min ([6]; in vivo): 0.17
- % Cured ([7]; 3 mg/kg QD oral, seven days): 0%
- Mean Day of Relapse ([7]; 3 mg/kg QD oral, seven days): 47 days post infection
- % Cured ([7]; 10 mg/kg QD oral, seven days): 66%
- Day of Relapse, mice which did not relapse (value in parenthesis) ([7]; 10 mg/kg QD oral, seven days): > 92 days post infection
- Mean Day of Relapse ([7]; 10 mg/kg QD oral, seven days, mice which relapsed): 50 days post infection
- % Cured ([7]; 30 mg/kg QD oral, seven days): 100%
- Mean Day of Relapse ([7]; 30 mg/kg QD oral, seven days): >92 days post infection
- % Cured ([7]; 100 mg/kg QD oral, seven days): 100%
- Mean Day of Relapse ([7]; 100 mg/kg QD oral, seven days): >92 days post infection
- Cure outcome ([7]; 30 and 100 mg/kg, once daily, oral): complete cure
- Dose that completely cured stage 2 infection [7]: 30 mg/kg
